{"source": "paper PMC9947563", "about": "“Identification of the molecular determinants of antagonist potency in the allosteric binding pocket of human P2X4” (Frontiers in Pharmacology, 2023)", "key": {"[1]": {"target": "T1, rat P2X4 T312I (r4-T312I) (Rattus norvegicus, UniProt P51577, T312I)", "T1 construct": "expressed in transfected cells; host or cells: 1321N1 astrocytoma cells, stably transfected", "T1 sequence (P51577 1-388 T312I)": "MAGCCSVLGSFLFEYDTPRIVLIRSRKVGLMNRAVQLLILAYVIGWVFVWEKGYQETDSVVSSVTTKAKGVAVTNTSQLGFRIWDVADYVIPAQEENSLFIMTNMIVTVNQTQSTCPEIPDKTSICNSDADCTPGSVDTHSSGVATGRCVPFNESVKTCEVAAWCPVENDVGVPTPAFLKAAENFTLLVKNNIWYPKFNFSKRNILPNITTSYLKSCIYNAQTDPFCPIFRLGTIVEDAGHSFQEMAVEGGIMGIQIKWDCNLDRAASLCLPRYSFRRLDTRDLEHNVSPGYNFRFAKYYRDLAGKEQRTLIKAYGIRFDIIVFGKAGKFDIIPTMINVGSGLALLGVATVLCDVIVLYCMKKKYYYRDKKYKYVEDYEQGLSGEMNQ", "experiment": "ATP-induced calcium influx (Fluo-4) in 1321N1 cells stably expressing rat P2X4 T312I", "type": "cell-based", "from_the_text": "Plasmid encoding rat P2X4 (r4-WT) ([Royle et al., 2005]) was a kind gift from Ruth Murrell-Lagnado, whilst that encoding human P2X4 with a C-terminal (His)10 tag has been reported previously ([Young et al., 2008]). Plasmids containing rat P2X4 T312I (r4-T312I) and human P2X4 I312T mutants (h4-I312T) were generated using the QuikChange Lightning site-directed mutagenesis kit (Agilent) according to manufacturer’s instructions. Sequencing of the constructs and of the genomic DNA from stably transfected cells confirmed correct full coding sequences.\n(§1) 1321N1 astrocytoma cells were cultured (at 37°C, 5% CO2) in Dulbecco’s modified Eagle’s medium (DMEM/F-12 with Glutamax) supplemented with 10% foetal bovine serum (FBS) and 200 unit/mL of penicillin and streptomycin antibiotics (Fisher Scientific). Stably transfected clones were grown in DMEM/F-12 with Glutamax medium supplemented with G-418 (Geneticin®, Fisher Scientific), 600 μg/mL and 150 μg/mL during selection and maintenance, respectively. FuGene HD Transfection Reagent (Promega) was used according to the manufacturer’s protocol for the generation of stable cell line expressing h4-WT, r4-WT, h4-I312T, and r4-T312I. Each cell line was then tested for P2X4 receptor expression by Western blot and for functionality using the Ca^2+ influx assay.\n(§2) Cells were plated the day before assay into poly-lysine-coated 96-well plates at 40–55,000 cells/mL. To load cells with calcium-sensitive fluorescent dye, culture medium was replaced with modified Ringer’s buffer (140 mM NaCl, 10 mM HEPES, 10 mM Glucose, 1 mM MgCl2, 1 mM CaCl2, 2.5 mM KCl, 0.5% BSA, pH = 7.4) containing 2.6 μM FLUO4-AM (Fisher Scientific) and 250 μM probenecid (Sigma), and cells were incubated for 20–30 min. Prior to assay, buffer was replaced with fresh modified Ringer’s buffer containing probenecid but not the dye. […] A Fluoroskan Ascent FL plate reader (Fisher Scientific) equipped with a solution dispenser and an appropriate filter pair (excitation: 485 nm, emission: 538 nm) was used to record 5-s baseline followed by P2X4-mediated calcium influx measurements for 20–25 s after ATP stimulation (final concentration ranging between 0.03 and 100 μM in buffered solution, pH = 7.4). The collected responses were normalized to the first data-point recorded after ATP injection.\nData processing and data analysis were carried out using Graphpad Prism version 6 for Mac. Figures are presented as Mean ± SEM. Statistical significance of any difference observed between samples was calculated through one-way ANOVA followed by Dunnett’s multiple comparisons test with a single pooled variance (control, unless otherwise specified) or, when comparing only two sets of data, using an unpaired t-test with Welch’s correction. When comparing data obtained from multiple independent experiments (N), each dataset was normalized to the mean value obtained for the vehicle control."}, "[2]": {"target": "T2, human P2X4 wild type (h4-WT) (Homo sapiens, UniProt Q99571)", "T2 construct": "expressed in transfected cells; host or cells: 1321N1 astrocytoma cells, stably transfected", "T2 sequence (Q99571 1-388)": "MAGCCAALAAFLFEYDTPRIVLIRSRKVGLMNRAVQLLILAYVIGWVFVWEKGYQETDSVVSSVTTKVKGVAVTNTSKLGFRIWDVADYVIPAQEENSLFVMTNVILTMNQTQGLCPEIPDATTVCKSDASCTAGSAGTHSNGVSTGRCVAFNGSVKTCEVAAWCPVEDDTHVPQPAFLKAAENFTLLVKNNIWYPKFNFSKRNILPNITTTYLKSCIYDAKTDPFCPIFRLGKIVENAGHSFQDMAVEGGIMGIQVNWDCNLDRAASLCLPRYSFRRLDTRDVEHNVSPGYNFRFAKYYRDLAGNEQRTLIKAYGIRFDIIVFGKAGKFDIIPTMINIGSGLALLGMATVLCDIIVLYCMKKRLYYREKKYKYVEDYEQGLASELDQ", "experiment": "ATP-induced calcium influx (Fluo-4) in 1321N1 cells stably expressing human P2X4 wild type", "type": "cell-based", "conditions": "human vs rat P2X4", "experimental": "as §1, with “FuGene HD Transfection Reagent (Promega) was used according to the manufacturer’s protocol for the generation of stable cell line expressing h4-WT, r4-WT, h4-I312T, and r4-T312I.” left out\nas §2, with “To load cells with calcium-sensitive fluorescent dye, culture medium was replaced with modified Ringer’s buffer (140 mM NaCl, 10 mM HEPES, 10 mM Glucose, 1 mM MgCl2, 1 mM CaCl2, 2.5 mM KCl, 0.5% BSA, pH = 7.4) containing 2.6 μM FLUO4-AM (Fisher Scientific) and 250 μM probenecid (Sigma), and cells were incubated for 20–30 min.” left out\nData processing and data analysis were carried out using Graphpad Prism version 6 for Mac. Figures are presented as Mean ± SEM. […] When comparing data obtained from multiple independent experiments (N), each dataset was normalized to the mean value obtained for the vehicle control."}, "zebrafish P2X4": {"tested_on": "zebrafish P2X4", "parameters": "method as in Ase et al. (2015)", "conditions": "ref Ase et al. (2015); cited from earlier work"}, "mP2X4": {"tested_on": "mP2X4", "conditions": "ref Ase et al. (2015); read-out: mP2X4 IC50; cited from earlier work"}}}
{"smiles": "CC(C)c1cc(Br)c(NC(=O)Nc2cccnc2)c(Br)c1", "note": "[BX430]", "values": [{"measurement": "IC50", "setting": "[1]", "result": 1390, "unit": "nM"}, {"measurement": "increase in BX430 potency by T312I mutation in rat P2X4", "setting": "[1]; rat P2X4 T312I vs rat P2X4 WT", "result": "approx. 47 fold"}, {"measurement": "Hill coefficient (BX-430 inhibition curve)", "setting": "[1]; rat P2X4 T312I, 1 µM ATP", "result": 2.475}, {"measurement": "potency at human P2X4 compared with the rat isoform", "setting": "[2]", "result": "approximately 30 fold"}, {"measurement": "IC50", "setting": "zebrafish P2X4", "result": 1890, "unit": "nM"}, {"measurement": "IC50", "setting": "mP2X4", "result": "> 10000", "unit": "nM"}]}
